For orientation: EC50 means the midpoint of the concentration-response curve. High values mean weaker potency, low ones greater potency. As usually defined, the CC50 is the concentration giving 50% cytotoxicity. Read a low CC50 as greater toxicity to the cells.

The text below walks through data of US10160771B2, “Hepatitis C virus inhibitors and uses thereof in preparation of drugs” (priority 2014, dated 2018).

Structures are written as SMILES.

Data set [1] relates to HCV genotype 1a (HCV-1a) replicon cells. Description: HCV genotype 1a replicon luciferase assay (EC50). The data set is classed as cell-based, hepatitis C virus genotype 1a (H77 clone). As to conditions: Hepatitis C virus, 72 h, 3 days, luciferase (Bright-Glo). The method in brief: (§1)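 Replicon cells, 8000/well, 3 d, 37 °C; 6-pt 5-fold dilution from 100, 10 or 1 nM, 0.5% DMSO, duplicates; Bright-Glo luminescence → EC50 (nonlinear fit). 1a = H77 K1691R/K2040R/S2204I; 1b = Con1 E1202G/T1280I/K1846T.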

Data set [2] has as its system HCV genotype 1b (HCV-1b) replicon cells. Description: HCV genotype 1b replicon luciferase assay (EC50). The data set is classed as cell-based, hepatitis C virus genotype 1b (Con1 clone). The note with it: 3 days, luciferase (Bright-Glo). The method in brief: as §1
A general note: Replicon systems follow genome replication, usually without infectious particles.

A short description of data set [3]: Cell Titer-fluor cell activity assay in HCV-1b replicon cells (CC50). The data set is classed as cell-based. The method in brief:
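CC50 derived by nonlinear fitting of inhibition % from Cell Titer-fluor signal (405/515 nm, 30 min). Cells: genotype 1b Con1 replicon carrying E1202G, T1280I, K1846T, seeded 8000/well with compound for 3 days, 37 °C, 0.5% DMSO; 6 points, 5-fold dilution, top 100, 10 or 1 nM, duplicates.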

`COC(=O)N[C@H](C(=O)N1CCC[C@H]1c1ncc(-c2ccc(-c3ccc(-c4cnc(C5C6CCC(C6)[C@H]5C(=O)N(NC(=O)OC)C(C)C)[nH]4)cc3)cc2)[nH]1)C(C)C` (stereo partly drawn) [AA_121_B]: the concentration for a half-maximal effect (EC50) fell in the range of 1 to 10 nM in data set [1] and 0.001 to 0.1 nM in data set [2]. In data set [3], this compound gave a cytotoxic concentration (CC50) at 3 days of more than 10 nM.

For the compound `COC(=O)N[C@@H](CO)C(=O)N1CCC[C@H]1c1ncc(-c2ccc(-c3ccc(-c4ccc([C@@H]5CCCN5C(=O)[C@@H](NC(=O)OC)C(C)OC)[nH]4)cc3)cc2)[nH]1` (stereo partly drawn) [AG_119], the concentration giving a half-maximal response (EC50) fell in the range of 0.101 to 1 nM in data set [1] and 0.001 to 0.1 nM in data set [2] (Hepatitis C virus, 72 h). In data set [3], this compound yielded a CC50 at 3 days of more than 1 nM.

With `COC[C@H](NC(=O)OC)C(=O)N1CCC[C@H]1c1ccc(-c2ccc(-c3ccc(-c4cnc([C@@H]5CCCN5C(=O)[C@H](COC)NC(=O)OC)[nH]4)cc3)cc2)[nH]1` [AG_109], the concentration giving a half-maximal response (EC50) in data set [1] lay within 0.101 to 1 nM; in data set [2] (Hepatitis C virus, 72 h), 0.001 to 0.1 nM. Moreover, the CC50 at 3 days in data set [3] was more than 1 nM.

In the case of `COC(=O)N[C@H](C(=O)N1CCC[C@H]1c1[nH]c(-c2ccc(-c3ccc(-c4cnc(C5C6CCC(C6)[C@@H]5C(=O)N(NC(=O)OC)C(C)C)[nH]4)cc3)cc2)c2c1CCC2)C(C)C` (stereo partly drawn) [AA_155], the EC50 was 10 to 100 nM in data set [1] and 1 to 10 nM in data set [2] (Hepatitis C virus, 72 h). In addition, the cytotoxic concentration (CC50) at 3 days in data set [3] is more than 100 nM.

`COC(=O)N[C@H](C(=O)N1CCCC1c1ncc(-c2ccc3c(c2)oc2cc(-c4ccc([C@@H]5CCCN5C(=O)[C@@H](NC(=O)OC)[C@@H](C)OC)[nH]4)ccc23)[nH]1)[C@@H](C)OC` (stereo partly drawn) [AG_103]: the 50% effective concentration (EC50) lay in the range of 1 to 10 nM in data set [1] and 0.001 to 0.1 nM in data set [2] (Hepatitis C virus, 72 h). In addition, the cytotoxic concentration (CC50) at 3 days in data set [3] was more than 1 nM.

Turning to `COC(=O)N[C@H](C(=O)N1CCC[C@H]1c1ncc(-c2ccc(-c3ccc(-c4cnc(C5C6CCC(C6)[C@@H]5C(=O)NC(C)c5cccnc5)[nH]4)cc3)cc2)[nH]1)[C@@H](C)OC` (stereo partly drawn) [AA_251_C], the half-maximal effective concentration (EC50) is 10 to 100 nM in data set [1] and 1 to 10 nM in data set [2] (Hepatitis C virus, 72 h). Moreover, in data set [3], the half-maximal cytotoxic concentration (CC50) at 3 days is more than 1 nM.

Consider `COC(=O)N[C@H](C(=O)N1CCC[C@H]1c1ccc(-c2ccc(-c3ccc(-c4cnc([C@@H]5CC6(CN5C(=O)[C@H](NC(=O)OC)C(C)C)OCC(C)(C)CO6)[nH]4)cc3)cc2)[nH]1)C(C)C` [AG_076], for which the EC50 in data set [1] was in the range of 10 to 100 nM; in data set [2] (Hepatitis C virus, 72 h), 0.001 to 0.1 nM. The same compound came in with a cytotoxic concentration (CC50) at 3 days in data set [3] of more than 5 nM.

With `COC(=O)N[C@H](C(=O)N1CCC[C@H]1c1ncc(-c2ccc(-c3ccc(-c4cnc(C5C6CCC(C6)[C@@H]5C(=O)NCc5cncc(C(C)C)c5)[nH]4)cc3)cc2)[nH]1)[C@@H](C)OC` (stereo partly drawn) [AA_254_A], the concentration giving a half-maximal response (EC50) in data set [1] fell in the range of 10 to 100 nM; in data set [2] (Hepatitis C virus, 72 h), 0.101 to 1 nM. This compound displayed a half-maximal cytotoxic concentration (CC50) at 3 days in data set [3] of more than 1 nM.

Turning to `COC(=O)N[C@H](C(=O)N1CCC[C@H]1c1ncc(-c2ccc(-c3ccc(-c4cnc([C@@H]5C6CCC(C6)[C@H]5C(=O)NCc5cccs5)[nH]4)cc3)cc2)[nH]1)C(C)C` (stereo partly drawn) [AA_196_B], the EC50 fell in the range of 10 to 100 nM in data set [1] and 0.001 to 0.1 nM in data set [2] (Hepatitis C virus, 72 h). In data set [3], this compound gave a CC50 at 3 days of more than 1 nM.

Regarding `COC(=O)NC(C(=O)N1CCC[C@H]1c1ncc(-c2ccc(-c3ccc(-c4cnc(C5C6CCC(C6)[C@@H]5C(=O)NCc5cccnc5)[nH]4)cc3)cc2)[nH]1)C1CCOCC1` (stereo partly drawn) [AA_191], the concentration giving a half-maximal response (EC50) in data set [1] was in the range of 1 to 10 nM; in data set [2] (Hepatitis C virus, 72 h), 0.101 to 1 nM. In data set [3], the CC50 at 3 days was more than 1 nM.

Consider `COC(=O)N[C@H](C(=O)N1CCC[C@H]1c1ncc(-c2ccc3c(c2)C(F)(F)c2cc(-c4cnc(C5C6CCC(C6)[C@H]5C(=O)NCc5cccnc5)[nH]4)ccc2-3)[nH]1)C(C)C` (stereo partly drawn) [AA_238], for which the EC50 in data set [1] lay within 1 to 10 nM; in data set [2] (Hepatitis C virus, 72 h), 0.001 to 0.1 nM. The CC50 at 3 days in data set [3] is more than 1 nM.

Take `COC(=O)N[C@H](C(=O)N1C[C@@H](OC)C[C@H]1c1ncc(-c2ccc(-c3ccc(-c4cnc([C@H]5C6CCC(C6)[C@@H]5C(=O)NCc5cccnc5)[nH]4)cc3)cc2)[nH]1)C(C)C` (stereo partly drawn) [AA_230_B]: the EC50 lay within 1 to 10 nM in data set [1] and 0.001 to 0.1 nM in data set [2] (Hepatitis C virus, 72 h). Further, the cytotoxic concentration (CC50) at 3 days in data set [3] is more than 1 nM.

As for `COC(=O)N[C@H](C(=O)N1CCC[C@H]1c1ncc(-c2ccc(-c3ccc(-c4cnc([C@@H]5C6CCC(C6)[C@H]5C(=O)NC(c5cccnc5)C(C)C)[nH]4)cc3)cc2)[nH]1)C(C)C` (stereo partly drawn) [AA_233_B], the EC50 fell in the range of 1 to 10 nM in data set [1] and 0.001 to 0.1 nM in data set [2] (Hepatitis C virus, 72 h). This compound had a half-maximal cytotoxic concentration (CC50) at 3 days in data set [3] of more than 1 nM.

Regarding `COC(=O)N[C@H](C(=O)N1CCC[C@H]1c1ncc(-c2ccc(-c3ccc(-c4cnc(C5C6CCC(C6)[C@H]5C(=O)NCc5ccc(C(F)(F)F)nc5)[nH]4)cc3)cc2)[nH]1)[C@@H](C)OC` (stereo partly drawn) [AA_264_B], the half-maximal effective concentration (EC50) lay within 10 to 100 nM in data set [1] and 0.101 to 1 nM in data set [2] (Hepatitis C virus, 72 h). Also, in data set [3], the cytotoxic concentration (CC50) at 3 days is more than 1 nM.

On to `COC(=O)N[C@H](C(=O)N1CCC[C@H]1c1ncc(-c2ccc(-c3ccc(-c4cnc([C@@H]5C6CCC(C6)[C@H]5C(=O)NCc5cccnc5C(F)(F)F)[nH]4)cc3)cc2)[nH]1)C(C)C` (stereo partly drawn) [AA_216_B], for which the EC50 in data set [1] was 10 to 100 nM; in data set [2] (Hepatitis C virus, 72 h) it was 0.001 to 0.1 nM. The compound further registered a CC50 at 3 days in data set [3] of more than 1 nM.

In the case of `COC(=O)N[C@H](C(=O)N1CCCC1c1ncc(-c2ccc(-c3ccc(-c4cnc([C@H]5C6CCC(C6)C5C(=O)NCc5cccnc5)[nH]4)cc3)c(F)c2)[nH]1)[C@@H](C)OC` (stereo partly drawn) [AA_280_B], the concentration for a half-maximal effect (EC50) in data set [1] was 0.101 to 1 nM; in data set [2] (Hepatitis C virus, 72 h), 0.001 to 0.1 nM. Further, the half-maximal cytotoxic concentration (CC50) at 3 days in data set [3] was more than 1 nM.

Consider `COC(=O)N[C@H](C(=O)N1CCC[C@H]1c1ncc(-c2ccc(-c3ccc(-c4cnc(C5C6CCC(C6)[C@@H]5C(=O)NCc5cccnc5SC)[nH]4)cc3)cc2)[nH]1)[C@@H](C)OC` (stereo partly drawn) [AA_259_A], for which the half-maximal effective concentration (EC50) in data set [1] is 10 to 100 nM; in data set [2] (Hepatitis C virus, 72 h), 0.001 to 0.1 nM. Moreover, the cytotoxic concentration (CC50) at 3 days in data set [3] was more than 1 nM.

Turning to `COC(=O)N[C@H](C(=O)N1CCC[C@H]1c1ncc(-c2ccc(-c3ccc(-c4cnc(C5C6CCC(C6)[C@@H]5C(=O)NCc5ccc(OC)nc5)[nH]4)cc3)cc2)[nH]1)[C@@H](C)OC` (stereo partly drawn) [AA_223_B], the half-maximal effective concentration (EC50) in data set [1] fell in the range of 10 to 100 nM; in data set [2] (Hepatitis C virus, 72 h), 0.101 to 1 nM. In data set [3], this compound showed a CC50 at 3 days of more than 1 nM.

`COC(=O)N[C@H](C(=O)N1CCCC1c1[nH]c(-c2ccc(-c3ccc(-c4cnc([C@@H]5CCCN5C(=O)[C@@H](NC(=O)OC)C(C)C)[nH]4)cc3)cc2)c2c1COC2)C(C)C` (stereo partly drawn) [AG_060]: the EC50 in data set [1] was in the range of 0.101 to 1 nM; in data set [2] (Hepatitis C virus, 72 h), 0.001 to 0.1 nM. For the same compound, the CC50 at 3 days in data set [3] was more than 1 nM.

`CCOC(=O)C(NC(=O)[C@H]1C2CCC(C2)[C@@H]1c1ncc(-c2ccc(-c3ccc(-c4cnc([C@@H]5CCCN5C(=O)[C@@H](NC(=O)OC)C(C)C)[nH]4)cc3)cc2)[nH]1)c1cccnc1` (stereo partly drawn) [AA_213]: the EC50 in data set [1] lay within 1 to 10 nM; in data set [2] (Hepatitis C virus, 72 h), 0.001 to 0.1 nM. In addition, the CC50 at 3 days in data set [3] is more than 1 nM.

With `COC(=O)N[C@H](C(=O)N1CCC[C@H]1c1ncc(-c2ccc(-c3ccc(-c4cnc([C@@H]5[C@H]6CC[C@H](C6)[C@H]5C(=O)N(C)c5ccccn5)[nH]4)cc3)cc2)[nH]1)C(C)C` [AA_195_ENDOA2], the concentration for a half-maximal effect (EC50) in data set [1] fell in the range of 0.101 to 1 nM; in data set [2] (Hepatitis C virus, 72 h) it was 0.001 to 0.1 nM. In data set [3], the cytotoxic concentration (CC50) at 3 days is more than 1 nM.

As for `COC(=O)N[C@H](C(=O)N1CCC[C@H]1c1ncc(-c2ccc(-c3ccc(-c4cnc([C@@H]5C6CCC(C6)[C@H]5C(=O)NCc5ccc(N)cc5)[nH]4)cc3)cc2)[nH]1)C(C)C` (stereo partly drawn) [AA_210_B], the EC50 in data set [1] was 10 to 100 nM; in data set [2] (Hepatitis C virus, 72 h) it was 0.001 to 0.1 nM. For the same compound, the CC50 at 3 days in data set [3] was more than 1 nM.

As to `COC(=O)N[C@H](C(=O)N1CCC[C@H]1c1ncc(-c2ccc(-c3ccc(-c4cnc([C@@H]5C6CCC(C6)[C@H]5C(=O)NCc5ccc(C(F)(F)F)nc5)[nH]4)cc3)cc2)[nH]1)C(C)C` (stereo partly drawn) [AA_232_B], the concentration giving a half-maximal response (EC50) in data set [1] lay in the range of 1 to 10 nM; in data set [2] (Hepatitis C virus, 72 h) it was 0.001 to 0.1 nM. This compound yielded a CC50 at 3 days in data set [3] of more than 1 nM.
